# According to patent publication US5096901A, “Pharmacologically active amides and esters containing an azabicycloalkane moiety” (John Wyeth & Brother Limited, priority 1989, dated 1992):
# Biological target: T1, 5-HT3 receptors (Rattus norvegicus, UniProt P35563)
# T1 sequence (P35563 24-483): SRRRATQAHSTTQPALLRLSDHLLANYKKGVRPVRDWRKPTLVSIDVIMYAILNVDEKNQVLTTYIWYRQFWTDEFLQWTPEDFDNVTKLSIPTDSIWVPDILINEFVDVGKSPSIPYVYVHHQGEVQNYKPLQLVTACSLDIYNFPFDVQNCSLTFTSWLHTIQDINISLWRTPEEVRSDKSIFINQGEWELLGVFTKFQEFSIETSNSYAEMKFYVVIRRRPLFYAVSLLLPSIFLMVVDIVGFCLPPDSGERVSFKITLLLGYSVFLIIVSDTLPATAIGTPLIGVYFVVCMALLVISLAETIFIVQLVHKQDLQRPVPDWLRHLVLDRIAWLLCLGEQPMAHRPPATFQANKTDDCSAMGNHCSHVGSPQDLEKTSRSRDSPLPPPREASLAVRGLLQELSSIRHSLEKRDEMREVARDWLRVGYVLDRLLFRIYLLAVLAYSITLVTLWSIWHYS
# Method: The compounds of the invention are tested for 5-HT3 antagonistic activity in the rat vagus by the following procedure:
# Segments of the vagus nerve from Sprague-Dawley rats were placed in a perspex chamber and perfused with Krebs solution. Electrodes, positioned at either end of the nerve segment, were used to record the potential differences which ensued upon the addition of various concentrations of 5-HT to one end of the nerve segment. Concentration-response curves to 5-HT were obtained in this manner prior to and following equilibration of the nerve segment with Krebs solution containing the test-substance.
smiles,measurement,value
"CN1[C@@H]2CC[C@H]1C[C@@H](NC(=O)c1cn(C)c3ccccc3c1=O)C2 [Example 1, (Endo)-N-(8-methyl-8-azabicyclo [3.2.1]octan-3-yl)-1,4-dihydro-1-methyl-4-oxoquinoline-3-carboxamide]",Kb,3.98 nM
